A short description of assay [1]: Levels of cholesterol, triglycerides and glucose in rats after oral treatment. It is filed as in vivo, rat. The settings on record: for % control CHO (cholesterol) / % control TG (triglycerides): rats, daily dose of 600 mg/kg oral, untreated controls = 100%. A digest of the protocol:
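Rats received vehicle or fatty acid at 0, 200, 400 or 600 mg/kg (single-dose comparison at 600 mg/kg) orally, daily for 30 days. Blood was then sampled and serum cholesterol, triglycerides and glucose were measured by standard colorimetric methods. Values are means of 6 animals per group.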

Another assay relates to SF767 human tumour cells. As to the kind of experiment: Growth of SF767 tumour cells in culture. Format: cell-based. Set-up: key to Anti-tumour effect: + [inhibition of growth]; ++ [total halt of growth]; +++ [total removal of tumour cells]; key to Mechanism of action: P [anti-proliferative]; D [differentiation]; A [apoptosis]. The settings on record: for pIC50: concentration that reduces the number of cells to half.

The test system of a further assay is A549 cells. Briefly: Growth/viability of A549 lung cancer cells in culture (cell count). It is filed as cell-based, human. The settings on record: for pIC50: concentration that reduces the number of cells to half. Set-up: key to Anti-tumour effect: + [inhibition of growth]; ++ [total halt of growth]; +++ [total removal of tumour cells]. A digest of the protocol:
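A549 cells were grown in RPMI with 10% serum at 37 °C under 5% CO2 and exposed to fatty-acid derivatives at 0–400 μM, or at 150 μM for 48 h. Cell number was counted by flow cytometry and expressed as percent of untreated control.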

Assay [2] is described as follows: Body weight of rats on cafeteria diet, no pre-treatment (Table 5). It is filed as in vivo, rat. The settings on record: cafeteria diet for 2 weeks, 300 mg/kg daily oral, no pre-treatment. The source says: The weight of treated animals was statistically less than the weight of obese control rats and statistically indistinguishable from that of lean control rats.

The test system of a further assay is hypertensive rats. As to the kind of experiment: Arterial pressure in hypertensive rats after 8-day treatment (Table 5). It is filed as in vivo, rat. The settings on record: arterial pressure, hypertensive rats, 8-day treatment, 400 mg/kg oral.
The mark [3] stands for this setting: OHOD 200, 400, 600 mg/kg oral daily, 30 days, Sprague-Dawley rats, p<0.05.

Molecules are shown by their SMILES. pIC50: −log10 of the molar value.

For orientation: pIC50 means the negative decadic logarithm of the IC50, by convention in mol/L.

On to `CCCCCCCC/C=C\CCCCCCC(OC)C(=O)O` (stereo not drawn) [MOOD, α-Methoxy-cis-Δ9-octadecenoic], for which, in assay [1], the “% control CHO (cholesterol)” value came to 65 % control and the “% control TG (triglycerides)” value is listed as 64 % control. In addition, the pIC50 in the assay with SF767 human tumour cells was 4.14. For the same compound, the pIC50 in the assay on A549 cells was 4.21. Further, the “Body weight (g) (control = 311 g)” value in assay [2] was found to be 279 g. Also, the “PA (control 214 mmHg)” value in the assay with hypertensive rats was 142 mmHg.
`CCCCCCCC/C=C\CCCCCCC(O)C(=O)[O-].[Na+]` (centres unmarked) [Na-OHOD]: the “% control CHO (cholesterol)” value in assay [1] is 51 % control. The “% control TG (triglycerides)” value in assay [1] is 32 % control. The figures for the pIC50 in the assay with SF767 human tumour cells and in the assay with A549 cells were 4.28 and 4.33, respectively. In assay [2], the “Body weight (g) (control = 311 g)” value was 281 g. In addition, the “PA (control 214 mmHg)” value with hypertensive rats is given as 128 mmHg.
Take `CCCCCCCC/C=C\CCCCCCC(O)C(=O)O` (stereo not drawn) [OHOD, α-Hydroxy-cis-Δ9-octadecenoic]: in assay [1] (setting [3]), the cholesterol levels entry is reported as “significant reductions”, the glucose levels result is reported as “significant reductions” and the triglycerides levels entry is on record as “significant reductions”. In assay [1], the “% control CHO (cholesterol)” value is recorded as 55 % control and the “% control TG (triglycerides)” value turned out to be 38 % control. In the assay on SF767 human tumour cells (SF-767, Glioma), the Anti-tumour effect entry is given as “++” and the Mechanism of action entry is reported as “D”. The pIC50 with SF767 human tumour cells was 4.15. Also, in the assay on A549 cells (A549, Lung), the Anti-tumour effect entry was “+++” and the Mechanism of action entry is on record as “P D”. Besides, the “effect on tumour cells at 200 to 400 μM” value with A549 cells (Doses of 200 to 400 μM, A549) is listed as “total elimination of tumour cells”. Besides, the pIC50 in the assay on A549 cells was 4.21. In addition, the “Body weight (g) (control = 311 g)” value in assay [2] came out at 292 g. Moreover, in the assay on hypertensive rats, the “PA (control 214 mmHg)” value came out at 146 mmHg.

(Values after patent publication US9730906B2, “α-derivatives of cis-monounsaturated fatty acids for use as medicines” (UNIVERSITAT DE LES ILLES BALEARS, priority 2008, dated 2017).)
